These results are taken from paper PMC9206500 (Journal of medicinal chemistry, 2021).

One assay concerns M14/LCC6MDR1. Nature of the assay: MTS cell proliferation assay, M14/LCC6MDR1. In kind it is cell-based. To be noted: Homo sapiens, 72 h, read-out: IC50, M14/LCC6MDR1.
In a further assay the test system is A375/TxR cells. Nature of the assay: Cell cycle analysis by flow cytometry. In kind it is cell-based, human. The conditions noted are these: 24 h; controls 10 nM, 60c 2.5, 5, 10 nM.

Each structure is given as a SMILES string. Some results are limits rather than exact numbers.

As for `COc1cc2c(c(OC)c1OC)-c1ccc(OC)c(=O)cc1[C@@H](NC(C)=O)CC2` [colchicine], the IC50 in the assay on M14/LCC6MDR1 was > 1000 nM. In addition, in the assay on A375/TxR cells, the “effect on cell cycle distribution” value was “normal cell cycle progression”.
